From patent US12398151B2, “Sumo inhibitor compounds and uses thereof” (SUVALENT THERAPEUTICS, INC., priority 2019, dated 2025) come the findings set out here.

In one experiment the target is T1, SUMO E1 (Homo sapiens, UniProt Q9UBT2).
T1 sequence (Q9UBT2 1-640): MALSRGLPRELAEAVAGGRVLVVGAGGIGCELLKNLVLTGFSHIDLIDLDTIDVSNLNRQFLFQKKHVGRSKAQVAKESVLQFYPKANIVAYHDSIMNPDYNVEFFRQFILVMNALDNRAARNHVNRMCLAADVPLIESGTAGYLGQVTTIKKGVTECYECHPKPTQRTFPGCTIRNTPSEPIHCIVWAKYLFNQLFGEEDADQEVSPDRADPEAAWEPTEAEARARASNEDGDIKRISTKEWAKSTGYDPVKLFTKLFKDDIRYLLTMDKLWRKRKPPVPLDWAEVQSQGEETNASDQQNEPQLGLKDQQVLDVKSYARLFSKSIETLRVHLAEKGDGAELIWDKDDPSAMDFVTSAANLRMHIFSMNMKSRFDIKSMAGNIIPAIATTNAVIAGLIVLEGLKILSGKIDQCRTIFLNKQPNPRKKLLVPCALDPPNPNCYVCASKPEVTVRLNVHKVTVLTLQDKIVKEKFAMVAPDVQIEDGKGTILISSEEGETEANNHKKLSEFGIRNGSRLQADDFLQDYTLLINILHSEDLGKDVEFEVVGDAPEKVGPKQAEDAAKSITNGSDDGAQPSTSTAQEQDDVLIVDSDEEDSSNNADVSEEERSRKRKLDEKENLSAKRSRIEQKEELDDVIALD
T1 sequence (Q9UBE0 1-346 partner): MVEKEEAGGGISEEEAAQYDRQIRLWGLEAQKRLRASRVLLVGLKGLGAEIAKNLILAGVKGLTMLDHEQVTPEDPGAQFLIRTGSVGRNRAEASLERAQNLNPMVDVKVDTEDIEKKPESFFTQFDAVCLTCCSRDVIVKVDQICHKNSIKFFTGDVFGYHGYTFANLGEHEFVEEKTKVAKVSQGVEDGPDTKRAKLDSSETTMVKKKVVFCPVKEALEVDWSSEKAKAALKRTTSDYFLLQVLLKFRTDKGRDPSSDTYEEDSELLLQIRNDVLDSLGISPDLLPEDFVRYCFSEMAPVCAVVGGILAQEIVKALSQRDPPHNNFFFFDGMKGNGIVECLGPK
Briefly: SUMO E1 inhibition: UBC9-SUMO1 conjugation by SDS gel electrophoresis. The conditions noted are these: for inhibition at 10 µM: 10 uM compound; for inhibition at 25 µM / SUMO E1 percent inhibition of adduct formation: 25 uM compound; for SUMO E1 percent inhibition of adduct formation: 25 µM. The experiment is classed as biochemical. How it is done:
(§1) Compounds are evaluated for their inhibitory effect on activating enzymes (E1) of ubiquitin, SUMO, Nedd8, Urm1, ISG15 or Atg7 using previously reported methods and protocols. One example is in: Allosteric inhibition of ubiquitin-like modifications by a class of inhibitor of SUMO-activating enzyme. Cell Chemical Biology, 26, 1-11, 2019. PMID: 28051857.
(§2) Compounds are tested in the following manner. The compound and SUMO E1 are incubated for a predetermined amount of time. UBC9, SUMO1, and ATP are added to the E1-compound mixture and incubated at 37° C. The reaction is quenched with Laemmli Buffer. The UBC9-SUMO1 conjugation is analyzed via SDS gel electrophoresis. The percent inhibition is measured by the intensity of the UBC9-SUMO1 band compared to the no compound control. Activities are listed as compound concentration (uM), preincubation time of E1 with compound (min), and percent inhibition of adduct formation (%). […]

Another experiment has as its target T2, Atg7 (Homo sapiens, UniProt O95352).
T2 sequence (O95352 1-703): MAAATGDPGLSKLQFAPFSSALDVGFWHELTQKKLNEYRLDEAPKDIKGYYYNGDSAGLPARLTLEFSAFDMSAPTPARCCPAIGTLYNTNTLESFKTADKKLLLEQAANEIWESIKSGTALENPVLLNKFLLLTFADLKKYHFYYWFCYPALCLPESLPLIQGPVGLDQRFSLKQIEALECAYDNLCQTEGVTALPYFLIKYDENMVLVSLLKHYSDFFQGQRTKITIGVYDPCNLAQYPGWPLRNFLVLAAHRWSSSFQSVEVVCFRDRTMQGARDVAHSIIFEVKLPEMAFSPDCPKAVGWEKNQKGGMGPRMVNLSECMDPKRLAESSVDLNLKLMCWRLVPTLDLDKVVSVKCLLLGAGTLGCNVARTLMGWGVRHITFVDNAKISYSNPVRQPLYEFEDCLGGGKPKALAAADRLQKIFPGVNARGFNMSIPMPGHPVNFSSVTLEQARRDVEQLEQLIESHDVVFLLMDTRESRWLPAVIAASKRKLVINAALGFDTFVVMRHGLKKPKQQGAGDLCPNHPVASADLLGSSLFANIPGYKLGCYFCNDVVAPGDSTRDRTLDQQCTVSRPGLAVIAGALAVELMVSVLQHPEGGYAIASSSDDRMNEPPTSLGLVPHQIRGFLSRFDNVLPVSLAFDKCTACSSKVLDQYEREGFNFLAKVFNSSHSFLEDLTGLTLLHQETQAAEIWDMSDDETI
Briefly: Atg7 activating enzyme (E1) inhibition. The experiment is classed as biochemical. The conditions noted are these: 25 uM compound, 60 min preincubation; for inhibition at 25 µM: read-out: Atg7 percent inhibition of adduct formation. On the procedure: as §1, §2

[1] abbreviates: 60 min preincubation, read-out: SUMO E1 percent inhibition of adduct formation.
The mark [2] stands for this setting: 30 min preincubation, read-out: SUMO E1 percent inhibition of adduct formation.

Like-named read-outs stand apart in the source and are kept apart here.

As for `C=CC(=O)N1Cc2cc(Br)ccc2[C@@H](c2ccccc2)C1` [Compound 61], on SUMO E1 (setting [1]), the inhibition at 10 µM turned out to be 100%. In addition, at Atg7, the inhibition at 25 µM was less than 1%.
Regarding `C=CC(=O)N1Cc2cccc(Br)c2[C@@H](c2ccccc2)C1` [Compound 62], the inhibition at 25 µM on SUMO E1 (setting [1]) is 5%; on Atg7 it was less than 1%.
With `C=CC(=O)N1Cc2ccc(Cl)cc2[C@@H](c2ccccc2)C1` [Compound 63], on SUMO E1 (setting [1]), the inhibition at 10 µM worked out at 50%. Further, the inhibition at 25 µM at Atg7 is less than 1%.
For `C=CC(=O)N1Cc2cc(Cl)ccc2[C@@H](c2ccccc2)C1` [Compound 64], in that order: 100% and less than 1%.
Take `C=CC(=O)N1Cc2ccc(Br)cc2[C@@H](c2ccc(Cl)cc2)C1` [Compound 65]: the “SUMO E1 percent inhibition of adduct formation” value on SUMO E1 (60 min preincubation) is recorded as 25 uM 60 min 10%. Besides, on Atg7, the inhibition at 25 µM was less than 1%.
Take `C=CC(=O)N1Cc2ccc(Br)cc2[C@@H](c2ccc(Cl)cc2)C1` [Compound 66]: at SUMO E1 (60 min preincubation), the “SUMO E1 percent inhibition of adduct formation” value was found to be 25 uM 60 min <1%. Moreover, the “Atg7 percent inhibition of adduct formation” value on Atg7 is given as 25 uM 60 min <1%.
In the case of `C=CC(=O)N1C[C@H](c2ccccc2)c2cc(Br)ccc2C1(C)C` [Compound 67], the inhibition at 25 µM on SUMO E1 (setting [1]) and on Atg7 was less than 1% throughout.
On to `C=CC(=O)N1Cc2cccc(Br)c2[C@@H](c2ccccc2C)C1` [Compound 69], for which the inhibition at 10 µM at SUMO E1 (setting [1]) came out at 60%. Further, the inhibition at 25 µM at Atg7 was less than 1%.
For `C=CC(=O)N1Cc2cc(Br)ccc2[C@@H](c2ccccc2OC)C1` [Compound 70] the same measures were 60% and less than 1%.
As to `C=CC(=O)N1Cc2cccc(Br)c2[C@@H](c2ccccc2OC)C1` [Compound 71], the figures for the inhibition at 25 µM at SUMO E1 (setting [1]) and on Atg7 were 20% and less than 1%, respectively.
In the case of `C=CC(=O)N1Cc2sc(Br)cc2[C@@H](c2ccccc2C)C1` [Compound 72], the inhibition at 10 µM at SUMO E1 (setting [1]) stood at 100%. Moreover, the inhibition at 25 µM at Atg7 is less than 1%.
Turning to `C=CC(=O)N1Cc2sc(Cl)cc2[C@@H](c2ccccc2)C1` [Compound 73], on SUMO E1 (setting [1]), the inhibition at 10 µM worked out at 100%. Further, the inhibition at 25 µM on Atg7 is less than 1%.
Consider `C=CC(=O)N1Cc2sc(C)cc2[C@@H](c2ccccc2)C1` [Compound 74], for which the inhibition at 25 µM at SUMO E1 (setting [1]) was 10%; at Atg7, less than 1%.
For `C=CC(=O)N1Cc2cc(Cl)ccc2[C@@H](c2ccccc2C)C1` [Compound 75], the inhibition at 10 µM on SUMO E1 (setting [1]) amounted to 100%. Further, at Atg7, the inhibition at 25 µM was less than 1%.
Consider `C=CC(=O)N1Cc2cccc(Cl)c2[C@@H](c2ccccc2C)C1` [Compound 76], for which the inhibition at 25 µM on SUMO E1 (setting [1]) and at Atg7 was less than 1% throughout.
For `C=CC(=O)N1Cc2cc(Br)ccc2[C@@H](c2ccccc2O)C1` [Compound 77], the inhibition at 25 µM on SUMO E1 (setting [1]) came to 20%; at Atg7, 30%.
For `C=CC(=O)N1Cc2cc(C#N)ccc2[C@@H](c2ccccc2)C1` [Compound 79] the same measures were less than 1% and less than 1%.
For the molecule `C=CC(=O)N1Cc2cc(Cl)ccc2[C@@H](c2ccccn2)C1` [Compound 80], the inhibition at 25 µM was 50% at SUMO E1 (setting [2]) and less than 1% at Atg7.
For `C=CC(=O)N1Cc2sc(CC)cc2[C@@H](c2ccccc2)C1` [Compound 82], on SUMO E1 (setting [2]), the inhibition at 10 µM amounted to 10%. Also, the inhibition at 25 µM on Atg7 was less than 1%.
For `C=CC(=O)N1Cc2oc(C)cc2[C@@H](c2ccccc2)C1` [Compound 83] the same measures were less than 1% and less than 1%.
As to `C=CC(=O)N1Cc2sc(Cl)cc2[C@@H](c2ccccc2C)C1` [Compound 84], the inhibition at 2.5 µM on SUMO E1 (2.5 uM compound, 30 min preincubation, read-out: SUMO E1 percent inhibition of adduct formation) turned out to be 90%. In addition, the inhibition at 25 µM on Atg7 is less than 1%.
With `C=CC(=O)N1Cc2cc(C)ccc2[C@@H](c2ccccc2C)C1` [Compound 85], the inhibition at 10 µM at SUMO E1 (setting [2]) is 100%. Further, the inhibition at 25 µM on Atg7 is less than 1%.
Regarding `C=CC(=O)N1Cc2cccc(C)c2[C@@H](c2ccccc2C)C1` [Compound 86], on SUMO E1 (setting [2]), the inhibition at 10 µM is less than 1%. Also, the inhibition at 25 µM on Atg7 is less than 1%.

A word on the inhibition: it is the percentage by which the read-out fell short of the control.
